Test results taken from patent US12564569B2, “Carboplatin complex and pharmaceutical preparation thereof” (ADVANCHL BIO[…] CENTER (SHANGHAI), priority 2019, dated 2026).

Legend:
linear DNA = assay: Binding assay with a linear DNA; settings: in a certain period of time
supercoiled plasmid DNA = assay: Mixing with supercoiled plasmid DNA, electrophoresis; format: binding; settings: electrophoresis after a period of time
[1] = tested on: supercoiled plasmid (pcDNA) with or without T4 GP41 DNA helicase; assay: DNA binding test involving helicase (gel electrophoresis); format: biochemical; settings: Test 1 vs Test 4; 0.1 mmol/L, 1 hour, 37° C.
Excerpt: In this experiment, the effect of a helicase on carboplatin 4.0 was verified by a DNA binding test involved by the helicase, including: using the supercoiled and linear plasmid DNA (Hr. pcDNA, which can be extracted in a conventional manner) as a template, changing the DNA conformation through reactions by combining with different platinum-based anticancer drugs, and then distinguishing different platinum drugs by differences in gel electrophoretograms. […]
The following samples (test numbers 1-5 and M) were analyzed under the above experimental conditions, and the addition of pcDNA, drugs, and helicases in each sample was shown as follows: • Test 1: pcDNA+Carboplatin+T4 • Test 2: pcDNA+Carboplatin 4.0+T4 • Test 3: pcDNA+Carboplatin 4.0 • Test 4: pcDNA+Carboplatin • Test 5: pcDNA Test M: Marker (Reference Standard)

[2] = Cytotoxicity experiments for antiviral application; format: cell-based

## N.N.O=C([O-])C1(C(=O)[O-])CCC1.[Pt+2] [carboplatin]
Linear DNA
  cross-linking with linear DNA: quickly forms a cross-linked adduct with DNA
Supercoiled plasmid DNA
  crosslinking with supercoiled plasmid DNA: crosslinks with the supercoiled plasmid DNA to form a adduct
[1]
  effect of the helicase on DNA binding of the drug: no obvious effect
[2]
  cytotoxicity evaluation for application in an antiviral aspect: hinders its application in the antiviral aspect
